In experiment [1] the target is Muscarinic acetylcholine receptor M3 (Rattus norvegicus, UniProt P08483).
Experiment [2] has as its target T1, Muscarinic acetylcholine receptor M4 (Mus musculus, UniProt P32211).
T1 sequence (P32211 whole entry): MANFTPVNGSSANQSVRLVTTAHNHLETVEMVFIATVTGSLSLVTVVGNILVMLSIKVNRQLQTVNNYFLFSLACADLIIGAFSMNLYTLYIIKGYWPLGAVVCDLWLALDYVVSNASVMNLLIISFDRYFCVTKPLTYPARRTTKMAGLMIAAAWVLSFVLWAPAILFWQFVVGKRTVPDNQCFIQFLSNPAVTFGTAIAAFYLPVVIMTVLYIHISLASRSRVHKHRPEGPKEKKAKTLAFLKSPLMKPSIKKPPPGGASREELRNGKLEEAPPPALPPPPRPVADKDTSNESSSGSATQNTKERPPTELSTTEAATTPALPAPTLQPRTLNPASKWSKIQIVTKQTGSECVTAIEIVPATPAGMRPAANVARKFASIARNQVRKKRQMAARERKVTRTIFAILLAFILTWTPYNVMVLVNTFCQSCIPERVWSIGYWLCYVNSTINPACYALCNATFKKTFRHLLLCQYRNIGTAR

Experiment [3] deals with T2, Muscarinic acetylcholine receptor M4 (Rattus norvegicus, UniProt P08485).
T2 sequence (P08485 whole entry): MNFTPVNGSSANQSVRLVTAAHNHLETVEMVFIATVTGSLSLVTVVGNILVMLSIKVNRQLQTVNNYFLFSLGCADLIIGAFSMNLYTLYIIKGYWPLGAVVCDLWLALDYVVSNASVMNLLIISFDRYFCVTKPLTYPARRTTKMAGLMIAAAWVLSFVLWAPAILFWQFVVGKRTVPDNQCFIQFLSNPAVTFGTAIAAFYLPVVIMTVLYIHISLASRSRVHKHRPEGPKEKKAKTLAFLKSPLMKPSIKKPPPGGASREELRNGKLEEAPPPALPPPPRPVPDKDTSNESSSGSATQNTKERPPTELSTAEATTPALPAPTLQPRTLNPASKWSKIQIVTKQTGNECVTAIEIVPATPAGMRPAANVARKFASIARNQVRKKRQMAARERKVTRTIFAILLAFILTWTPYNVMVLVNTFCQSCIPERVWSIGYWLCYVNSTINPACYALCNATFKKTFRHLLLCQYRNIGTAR

Experiment [4] has as its target T3, Muscarinic acetylcholine receptor M2 (Rattus norvegicus, UniProt P10980).
T3 sequence (P10980 whole entry): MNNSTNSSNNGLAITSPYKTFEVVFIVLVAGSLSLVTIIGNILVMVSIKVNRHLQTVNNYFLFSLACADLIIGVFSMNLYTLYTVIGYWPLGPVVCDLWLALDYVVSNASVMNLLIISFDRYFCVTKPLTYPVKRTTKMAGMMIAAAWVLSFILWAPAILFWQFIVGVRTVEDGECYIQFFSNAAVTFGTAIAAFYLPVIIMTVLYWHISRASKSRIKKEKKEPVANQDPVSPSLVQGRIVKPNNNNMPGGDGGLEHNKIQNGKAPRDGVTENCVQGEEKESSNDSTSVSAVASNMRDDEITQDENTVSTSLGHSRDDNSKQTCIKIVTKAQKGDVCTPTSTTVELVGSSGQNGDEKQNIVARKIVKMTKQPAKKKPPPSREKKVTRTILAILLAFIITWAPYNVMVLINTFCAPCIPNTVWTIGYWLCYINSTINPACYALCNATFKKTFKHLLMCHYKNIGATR

The values that follow come from BindingDB's records for PubMed 2385234 (Universit&Eacute, 1990).

Molecules are shown by their SMILES. Values joined by “and” are separate entries in the source; they are usually repeats but may differ in a detail not shown here. Identical values can stand only once.

Sequence of Muscarinic acetylcholine receptor M3 (P08483 whole entry): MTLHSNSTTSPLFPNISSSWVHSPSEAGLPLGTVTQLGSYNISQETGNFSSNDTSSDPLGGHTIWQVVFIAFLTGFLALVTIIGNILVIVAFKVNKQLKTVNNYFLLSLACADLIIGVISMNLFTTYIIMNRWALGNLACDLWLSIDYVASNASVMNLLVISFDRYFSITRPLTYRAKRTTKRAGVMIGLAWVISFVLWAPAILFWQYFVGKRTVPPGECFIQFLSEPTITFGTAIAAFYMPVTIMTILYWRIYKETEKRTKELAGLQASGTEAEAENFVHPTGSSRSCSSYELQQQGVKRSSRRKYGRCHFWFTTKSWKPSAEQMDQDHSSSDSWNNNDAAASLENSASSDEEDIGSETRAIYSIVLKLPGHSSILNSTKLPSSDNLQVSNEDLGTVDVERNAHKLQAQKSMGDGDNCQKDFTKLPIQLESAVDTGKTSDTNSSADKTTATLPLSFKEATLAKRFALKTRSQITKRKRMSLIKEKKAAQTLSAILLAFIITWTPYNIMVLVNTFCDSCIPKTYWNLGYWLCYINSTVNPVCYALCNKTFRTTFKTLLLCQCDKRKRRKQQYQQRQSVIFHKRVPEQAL

As a reminder, the Ki is a dissociation constant, usually derived from enzyme kinetics or from competition with a known ligand. A high value points to weaker binding. In the case of `O[Si](CCCN1CCCCC1)(c1ccccc1)C1CCCCC1` (configuration not stated) [HHSiD], the inhibition constant Ki in experiment [1] was 50 nM; in experiment [2] it was 100 nM; in experiment [3], 93 nM and 110 nM.
In experiment [2], `CN1CCN(CC(=O)N2c3ccccc3C(=O)Nc3cccnc32)CC1` [11-[(4-methylpiperazin-1-yl)acetyl]-5,11-dihydro-6H-pyrido[2,3-b][1,4]benzodiazepin-6-one] registered a Ki of 400 nM.
Turning to `C[N+]1(C)CCC(OC(=O)C(c2ccccc2)c2ccccc2)CC1`, the Ki in experiment [2] was 5.6 nM; in experiment [3], 5.2 nM and 5.6 nM.
In the case of `COc1ccccc1CNCCCCCCNCCCCCCCCNCCCCCCNCc1ccccc1OC` [METHOCTRAMINE], the Ki in experiment [1] is 3000 nM; in experiment [2], 160 nM; in experiment [3] it was 130 nM and 100 nM.
As to `CCN(CC)CC1CCCCN1CC(=O)N1c2ccccc2C(=O)Nc2cccnc21` (configuration not stated) [(AF-DX 116) 11-[2-(2-Diethylaminomethyl-piperidin-1-yl)-acetyl]-5,11-dihydro-benzo[e]pyrido[3,2-b][1,4]diazepin-6-one], the Ki is 74 nM in experiment [4]; 4800 nM in experiment [1]; 1600 nM in experiment [2]; 1700 nM and 1500 nM in experiment [3].
For `C[C@H]1OC(=O)C2C[C@H]3CCCC[C@@H]3[C@@H](/C=C/[C@@H]3CCC[C@H](C)N3C)C21` (some centres not stated) [HIMBACINE], the Ki in experiment [4] is 15 nM; in experiment [1], 900 nM; in experiment [2], 60 nM; in experiment [3], 46 nM and 50 nM.
